Patent US4175081A, “5-Substituted thiadiazole ureas” (priority 1977, dated 1979)

Experiments:
[1] = tested on: Turnip (TP); assay: Pre-emergence herbicide test; type: in vivo, Brassica sp.; settings: Brassica rapa, pre-emergence, 336 h, two weeks after treatment; for pest or weed control at 8966.8 g/ha: 8 lb/acre
Summary of the method: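 In this pre-emergence greenhouse test, turnip was seeded on the surface of potting soil in 3' plastic pots, lightly covered with screened soil, and watered from below. One day later the pots were sprayed in a belt-fed spray hood. Watering continued only by sub-irrigation, and percent control was visually scored two weeks after treatment.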

[2] = tested on: Cotton (CT); assay: Post-emergence herbicide test; type: in vivo, Gossypium hirsutum var. DPL smooth leaf; settings: Gossypium hirsutum, post-emergence, 336 h, two weeks after treatment; for pest or weed control at 8966.8 g/ha: 8 lb/acre
Summary of the method: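 This greenhouse post-emergence test measured how well spray treatments controlled cotton. Seedlings of Gossypium hirsutum var. DPL smooth leaf, with expanded cotyledons and a first true leaf 1' in length, were sprayed with 50 ml formulations in a belt-fed spray hood. They were then returned to the greenhouse and watered only by sub-irrigation. Injury was scored visually as % control after two weeks.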

[3] = tested on: Amaranth pigweed (PW); assay: Post-emergence herbicide test; type: in vivo, Amaranthus retroflexus; settings: 336 h, two weeks after treatment; for pest or weed control at 8966.8 g/ha: 8 lb/acre
Summary of the method: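 Visual injury or control ratings were made two weeks after spraying, with greenhouse watering by sub-irrigation only. Treatment was post-emergence, when pigweed seedlings had 1 or 2 true leaves, at 8 lbs active compound per acre (4 lbs/acre formulations also made) in a 38 gallons-per-acre spray volume.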

[4] = tested on: Turnip (TP); assay: Post-emergence herbicide test; type: in vivo, Brassica sp.; settings: Brassica rapa, post-emergence, 336 h, two weeks after treatment; for pest or weed control at 8966.8 g/ha: 8 lb/acre
Summary of the method: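 A greenhouse post-emergence herbicide test on turnip. Seeds were sown on the surface of potting soil in 3' plastic pots, lightly covered with screened soil and watered from below. Planting was timed so seedlings had 1 or 2 true leaves above the cotyledons at spraying, done in a hood with a fixed nozzle. Control or injury was scored by eye after two weeks.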

[5] = tested on: Corn (CN); assay: Post-emergence herbicide test; type: in vivo; settings: Zea mays, 336 h, two weeks after treatment; for pest or weed control at 8966.8 g/ha: 8 lb/acre
Summary of the method: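 Greenhouse seedlings grown in potting soil and sprayed post-emergence at 8 lbs compound/acre (formulations also made for 4 lbs/acre) in 38 gallons/acre spray volume. Watering by sub-irrigation only. Injury or control rated visually two weeks after treatment.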

[6] = tested on: Yellow foxtail grass (YF); assay: Pre-emergence herbicide test; type: in vivo, Setaria glauca; settings: Setaria, 336 h, two weeks after treatment; for pest or weed control at 8966.8 g/ha: 8 lb/acre
Summary of the method: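 Visual rating of injury/control made two weeks after a pre-emergence spray of 8 or 4 lbs active per acre (38 gal/acre) onto pots seeded the previous day. Greenhouse watering by sub-irrigation only.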

[7] = tested on: Bean (BN); assay: Pre-emergence herbicide test; type: in vivo, Phaseolus vulgaris var. Black Valentine; settings: Phaseolus vulgaris, 336 h, two weeks after treatment; for pest or weed control at 8966.8 g/ha: 8 lb/acre
Summary of the method: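 Visual injury/control ratings were taken two weeks post-spray on sub-irrigated Phaseolus vulgaris var. Black Valentine. Pots were sown a day before treatment. Pre-emergence spray delivered 8 lbs actual compound per acre (or 4 lbs/acre) at 38 gallons per acre.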

[8] = tested on: Bean (BN); assay: Post-emergence herbicide test; type: in vivo, Phaseolus vulgaris var. Black Valentine; settings: Phaseolus vulgaris, post-emergence, 336 h, two weeks after treatment; for pest or weed control at 8966.8 g/ha: 8 lb/acre
Summary of the method: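 Bean seedlings (Phaseolus vulgaris var. Black Valentine) were grown in potting soil in 3' pots until the primary leaves expanded. They were then sprayed under a hood with a removable belt and fixed nozzle, using 50 ml formulations. Afterward they were returned to the greenhouse and watered only by sub-irrigation. Percent control was judged visually two weeks after treatment.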

[9] = tested on: Cotton (CT); assay: Pre-emergence herbicide test; type: in vivo, Gossypium hirsutum var. DPL smooth leaf; settings: Gossypium hirsutum, 336 h, two weeks after treatment; for pest or weed control at 8966.8 g/ha: 8 lb/acre
Summary of the method: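 Visual injury/control ratings were taken at two weeks post-spray. Pots seeded a day earlier received compound pre-emergence at 8 lbs/acre, or 4 lbs/acre, in a 38 gallon/acre spray volume, and were then held in the greenhouse, watered only from below.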

[10] = tested on: Yellow foxtail grass (YF); assay: Post-emergence herbicide test; type: in vivo, Setaria glauca; settings: Setaria, 336 h, two weeks after treatment; for pest or weed control at 8966.8 g/ha: 8 lb/acre
Summary of the method: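 Visual rating of injury/control made 2 weeks post-spray. Seedlings at a uniform growth stage in soil-filled pots received a hood spray of 8 lbs/acre active compound, 38 gallons/acre volume, with a 4 lbs/acre rate also formulated. Watering was by sub-irrigation only.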

[11] = tested on: Crabgrass (CG); assay: Post-emergence herbicide test; type: in vivo, Digitaria sanquinalis; settings: Digitaria sanguinalis, post-emergence, 336 h, two weeks after treatment; for pest or weed control at 8966.8 g/ha: 8 lb/acre
Summary of the method: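 Crabgrass (Digitaria sanquinalis) was surface seeded individually in 3' plastic pots of potting soil, covered with screened soil, and watered by sub-irrigation in greenhouse trays. Planting was staggered so seedlings reached the target stage together. Post-emergence sprays were applied in a hood with a removable belt and fixed nozzle, and control was visually rated two weeks after treatment.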

[12] = tested on: Johnson grass (JG); assay: Post-emergence herbicide test; type: in vivo, Sorgum helepense; settings: Sorghum halepense, 336 h, two weeks after treatment; for pest or weed control at 8966.8 g/ha: 8 lb/acre
Summary of the method: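 Visual injury or control scores taken 2 weeks after a post-emergence spray of pot-grown plants. Application was 8 lbs/acre (or 4 lbs/acre) in 38 gal/acre. Plants were held in the greenhouse with sub-irrigation only.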

[13] = tested on: Amaranth pigweed (PW); assay: Pre-emergence herbicide test; type: in vivo, Amaranthus retroflexus; settings: 336 h, two weeks after treatment; for pest or weed control at 8966.8 g/ha: 8 lb/acre
Summary of the method: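 Visual injury or control ratings were made at two weeks on pre-emergence pots, sub-irrigated in the greenhouse. Seeds were sown a day before a hood spray delivering 8 lbs/acre (or 4 lbs/acre) of compound in 38 gallons per acre.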

[14] = tested on: Johnson grass (JG); assay: Pre-emergence herbicide test; type: in vivo, Sorgum helepense; settings: Sorghum halepense, 336 h, two weeks after treatment; for pest or weed control at 8966.8 g/ha: 8 lb/acre
Summary of the method: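 Visual injury or control rating two weeks post-treatment, after pre-emergence spray of 8 or 4 lbs active per acre (38 gal/acre) onto pots sown the previous day. Greenhouse watering by sub-irrigation only.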

[15] = tested on: Crabgrass (CG); assay: Pre-emergence herbicide test; type: in vivo, Digitaria sanquinalis; settings: Digitaria sanguinalis, pre-emergence, 336 h, two weeks after treatment; for pest or weed control at 8966.8 g/ha: 8 lb/acre
Summary of the method: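 Crabgrass (Digitaria sanquinalis) was surface seeded in 3' plastic pots of potting soil, covered with screened soil, and watered by sub-irrigation in greenhouse trays. Pots were seeded one day before spraying in a hood with a moving belt and fixed nozzle. Plants stayed in the greenhouse on sub-irrigation, and pre-emergence control was rated visually two weeks after treatment.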

[16] = tested on: Barnyard grass (BG); assay: Post-emergence herbicide test; type: in vivo; settings: Echinochloa crus-galli, 336 h, two weeks after treatment; for pest or weed control at 8966.8 g/ha: 8 lb/acre
Summary of the method: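 Greenhouse pot-grown barnyard grass seedlings sprayed post-emergence at 8 lbs active compound per acre (some at 4 lbs/acre) in 38 gallons per acre, then sub-irrigated. Injury or control rated visually two weeks after treatment.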

[17] = tested on: Barnyard grass (BG); assay: Pre-emergence herbicide test; type: in vivo; settings: Echinochloa crus-galli, 336 h, two weeks after treatment; for pest or weed control at 8966.8 g/ha: 8 lb/acre
Summary of the method: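 Greenhouse pre-emergence spray test: pots seeded one day before treatment received compound at rates of 8 or 4 lb/acre (38 gal/acre). Visual injury/control scores for Echinochloa crus-galli taken at two weeks, with watering by sub-irrigation only.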

[18] = tested on: Corn (CN); assay: Pre-emergence herbicide test; type: in vivo; settings: Zea mays, 336 h, two weeks after treatment; for pest or weed control at 8966.8 g/ha: 8 lb/acre
Summary of the method: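 Visual injury/control ratings were made 2 weeks post-spray on corn pots seeded (4 seeds, seed-diameter depth) the day before treatment. Application was a belt-hood spray of 38 gal/acre delivering 8 lbs active per acre, with a 4 lbs/acre rate also formulated. Watering was by sub-irrigation throughout.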

## CNC(=O)Nc1nnc(S(C)(=O)=O)s1 [Example 33]
[1]; 2 lb/acre
  pest or weed control at 2241.7 g/ha: 90%
[1]; 4 lb/acre
  pest or weed control at 4483.4 g/ha: 100%
[1]
  pest or weed control at 8966.8 g/ha: 100%
[2]; 2 lb/acre
  pest or weed control at 2241.7 g/ha: 40%
[2]; 4 lb/acre
  pest or weed control at 4483.4 g/ha: 100%
[2]
  pest or weed control at 8966.8 g/ha: 100%
[3]; 2 lb/acre
  pest or weed control at 2241.7 g/ha: 50%
[3]; 4 lb/acre
  pest or weed control at 4483.4 g/ha: 100%
[3]
  pest or weed control at 8966.8 g/ha: 100%
[4]; 2 lb/acre
  pest or weed control at 2241.7 g/ha: 90%
[4]; 4 lb/acre
  pest or weed control at 4483.4 g/ha: 80%
[4]
  pest or weed control at 8966.8 g/ha: 100%
[5]; 2 lb/acre
  pest or weed control: 20%
[5]; 4 lb/acre
  pest or weed control at 4483.4 g/ha: 10%
[5]
  pest or weed control at 8966.8 g/ha: 100%
[6]; 2 lb/acre
  pest or weed control at 2241.7 g/ha: 70%
[6]; 4 lb/acre
  pest or weed control at 4483.4 g/ha: 90%
[6]
  pest or weed control at 8966.8 g/ha: 80%
[7]; 2 lb/acre
  pest or weed control at 2241.7 g/ha: 100%
[7]; 4 lb/acre
  pest or weed control at 4483.4 g/ha: 90%
[7]
  pest or weed control at 8966.8 g/ha: 90%
[8]; 2 lb/acre
  pest or weed control at 2241.7 g/ha: 100%
[8]; 4 lb/acre
  pest or weed control at 4483.4 g/ha: 100%
[8]
  pest or weed control at 8966.8 g/ha: 100%
[9]; 2 lb/acre
  pest or weed control at 2241.7 g/ha: 40%
[9]; 4 lb/acre
  pest or weed control at 4483.4 g/ha: 50%
[9]
  pest or weed control at 8966.8 g/ha: 50%
[10]; 2 lb/acre
  pest or weed control: 70%
[10]; 4 lb/acre
  pest or weed control at 4483.4 g/ha: 100%
[10]
  pest or weed control at 8966.8 g/ha: 90%
[11]; 2 lb/acre
  pest or weed control: 90%
[11]; 4 lb/acre
  pest or weed control at 4483.4 g/ha: 60%
[11]
  pest or weed control at 8966.8 g/ha: 90%
[12]; 2 lb/acre
  pest or weed control: 80%
[12]; 4 lb/acre
  pest or weed control at 4483.4 g/ha: 50%
[12]
  pest or weed control at 8966.8 g/ha: 40%
[13]; 2 lb/acre
  pest or weed control at 2241.7 g/ha: 50%
[13]; 4 lb/acre
  pest or weed control at 4483.4 g/ha: 60%
[13]
  pest or weed control at 8966.8 g/ha: 70%
[14]; 2 lb/acre
  pest or weed control at 2241.7 g/ha: 80%
[14]; 4 lb/acre
  pest or weed control at 4483.4 g/ha: 60%
[14]
  pest or weed control at 8966.8 g/ha: 70%
[15]; 2 lb/acre
  pest or weed control: 90%
[15]; 4 lb/acre
  pest or weed control at 4483.4 g/ha: 90%
[15]
  pest or weed control at 8966.8 g/ha: 90%
[16]; 2 lb/acre
  pest or weed control at 2241.7 g/ha: 70%
[16]; 4 lb/acre
  pest or weed control at 4483.4 g/ha: 70%
[16]
  pest or weed control at 8966.8 g/ha: 100%
[17]; 2 lb/acre
  pest or weed control at 2241.7 g/ha: 70%
[17]; 4 lb/acre
  pest or weed control at 4483.4 g/ha: 90%
[17]
  pest or weed control at 8966.8 g/ha: 80%
[18]; 2 lb/acre
  pest or weed control at 2241.7 g/ha: 20%
[18]; 4 lb/acre
  pest or weed control at 4483.4 g/ha: 20%
[18]
  pest or weed control at 8966.8 g/ha: 70%

## CNC(=O)N(C)c1nnc(SC)s1 [Example 38]
[1]
  pest or weed control at 8966.8 g/ha: 100%
[2]
  pest or weed control at 8966.8 g/ha: 100%
[3]
  pest or weed control at 8966.8 g/ha: 100%
[4]
  pest or weed control at 8966.8 g/ha: 100%
[5]
  pest or weed control at 8966.8 g/ha: 100%
[6]
  pest or weed control at 8966.8 g/ha: 100%
[7]
  pest or weed control at 8966.8 g/ha: 100%
[8]
  pest or weed control at 8966.8 g/ha: 100%
[9]
  pest or weed control at 8966.8 g/ha: 90%
[10]
  pest or weed control at 8966.8 g/ha: 100%
[11]
  pest or weed control at 8966.8 g/ha: 80%
[12]
  pest or weed control at 8966.8 g/ha: 80%
[13]
  pest or weed control at 8966.8 g/ha: 90%
[14]
  pest or weed control at 8966.8 g/ha: 80%
[15]
  pest or weed control at 8966.8 g/ha: 100%
[16]
  pest or weed control at 8966.8 g/ha: 90%
[17]
  pest or weed control at 8966.8 g/ha: 100%
[18]
  pest or weed control at 8966.8 g/ha: 80%
